The values that follow come from patent US20130210765A1, “HYALURONIC ACID CONTAINING PHARMACEUTICAL OR VETERINARY COMPOSITIONS” (priority 2004, published 2013).

The assay deals with lameness in horses. The experiment in a line: double-blind placebo controlled crossover clinical trial on lameness in horses. Format: in vivo. On the procedure: A crossover double blind and randomised study was designed to evaluate the efficacy of GLM lipid extract and HA alone and in combination in the treatment of lameness in horses.
Qualifying horses were initially examined and randomly assigned to receive four capsules of the placebo, or containing 50 mg GLM, or 50 mg Hyaluronate, or a mixture of 50 mg GLM and 50 mg Hyaluronate daily. Randomisation was computer generated in balanced blocks of the four treatment regimes and was crossover in design. No other medications were administered.
Evaluations of arthritic/musculoskeletal signs were carried out by a veterinarian and research assistant at wk 0 and every two weeks thereafter until the end of the trial. All parameters were scored on a scale of 1 to 10 according to severity and symptom improvement where 1 was severe disease symptomology and 10 indicated a disease free condition score and the results are shown in Table 1 and FIG. 4.
Each horse was scored for mobility (average of individual scores for lameness in walking, trotting, turning and any other musculoskeletal abnormality). Individual joints (neck, back, carpus, elbow and shoulder or tarsus, stifle and hip) of each limb were individually scored for degree of pain, swelling, crepitus and reduction in range of movement. Horses were also filmed for gait analysis and scored. Summation of the mobility score and all individual joint scores for each horse comprised their total arthritic/musculoskeletal score.

Take Hyaluronic acid [Hyaluronate]: the “mean clinical lameness score, Mid Phase 14 Days” value (four capsules daily, 14 days, scale 1 (severe) to 10 (disease free), Mean ± SEM) is listed as 2.6 ± 0.47^be. For the same substance, the “mean clinical lameness score, End Phase 28 Days” value (four capsules daily, 28 days, scale 1 (severe) to 10 (disease free), Mean ± SEM) is reported as 2.8 ± 0.48^ef. The “effect on degree of lameness / locomotory score (in words)” value (within 2 weeks / 14 days of treatment) is “little influence on it own”.
